# Test results: patent US11331364B2, “Use for JNK inhibitor molecules for treatment of various diseases” (Xigen Inflammation Ltd., priority 2014, dated 2022)
# Where two headings read alike, the source gives them in different places. Square brackets hold non-standard residues; d marks the D form. Peptide text beside a SMILES is read from it.
# Columns and labels:
# hJNK2 = hJNK2 (Homo sapiens, UniProt P45984); assay: hJNK2 | IC50
# From the text: (§1) Table printed on a drawing sheet, Fig. 4
# Head of the field: hJNK2 | IC50
# (§2) The patent's description of the figure: FIG. 4: Table illustrating the inhibitory efficacy of several JNK inhibitors according to the present invention, which are fusion proteins of a JNK inhibitory (poly-)peptide sequence and a transporter sequence. Given are the IC50 values in the nM range, the respective standard error of the mean (SEM) and the number of experiments performed (n).
# (§3) First copying reader's note: The sheet prints no unit for IC50 (the description says nM range); decimal commas are used, except for three IC50 cells printed with a point (3820.81, 5340.33, 8130.86).
# Where the first naming reader finds the target: head: hJNK2 | IC50
# hJNK1 = target: T1, hJNK1 (Homo sapiens, UniProt P45983); assay: hJNK1 | IC50; conditions: read-out: hJNK1 | IC50
# T1 construct: His; purchased Upstate 14-327
# T1 sequence (P45983 whole entry, looked up): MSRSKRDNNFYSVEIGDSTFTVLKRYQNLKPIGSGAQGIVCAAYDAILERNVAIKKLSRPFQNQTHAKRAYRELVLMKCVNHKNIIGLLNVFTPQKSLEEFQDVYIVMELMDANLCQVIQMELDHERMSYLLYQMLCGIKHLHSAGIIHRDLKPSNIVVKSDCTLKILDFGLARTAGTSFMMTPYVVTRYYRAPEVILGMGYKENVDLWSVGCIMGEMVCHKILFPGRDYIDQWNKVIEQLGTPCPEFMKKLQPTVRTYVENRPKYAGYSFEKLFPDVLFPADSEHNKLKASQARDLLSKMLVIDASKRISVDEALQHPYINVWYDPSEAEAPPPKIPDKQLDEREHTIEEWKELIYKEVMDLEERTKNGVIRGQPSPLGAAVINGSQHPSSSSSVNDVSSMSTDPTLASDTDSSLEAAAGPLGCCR
# From the text: as §1
# Head of the field: hJNK1 | IC50
# as §2, §3
# Where the first naming reader finds the target: head: hJNK1 | IC50
# hJNK3 = hJNK3 (Homo sapiens, UniProt P53779); assay: hJNK3 | IC50; conditions: read-out: hJNK3 | IC50
# Sequence of hJNK3 (P53779 whole entry, looked up): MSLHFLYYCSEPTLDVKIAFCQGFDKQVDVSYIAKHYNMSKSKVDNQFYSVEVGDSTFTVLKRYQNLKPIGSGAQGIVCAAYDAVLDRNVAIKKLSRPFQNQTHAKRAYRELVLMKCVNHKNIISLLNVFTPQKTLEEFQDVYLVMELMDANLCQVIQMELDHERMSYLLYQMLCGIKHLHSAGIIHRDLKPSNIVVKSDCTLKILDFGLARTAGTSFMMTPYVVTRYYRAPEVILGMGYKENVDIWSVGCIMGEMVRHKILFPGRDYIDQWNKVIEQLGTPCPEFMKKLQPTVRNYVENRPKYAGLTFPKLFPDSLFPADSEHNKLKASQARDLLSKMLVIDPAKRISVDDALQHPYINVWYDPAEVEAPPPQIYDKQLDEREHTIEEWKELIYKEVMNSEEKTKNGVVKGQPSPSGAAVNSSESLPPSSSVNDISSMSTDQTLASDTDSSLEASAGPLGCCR
# From the text: as §1
# Head of the field: hJNK3 | IC50
# as §2, §3
# Where the first naming reader finds the target: head: hJNK3 | IC50
# Sequence of hJNK2 (P45984 whole entry, looked up): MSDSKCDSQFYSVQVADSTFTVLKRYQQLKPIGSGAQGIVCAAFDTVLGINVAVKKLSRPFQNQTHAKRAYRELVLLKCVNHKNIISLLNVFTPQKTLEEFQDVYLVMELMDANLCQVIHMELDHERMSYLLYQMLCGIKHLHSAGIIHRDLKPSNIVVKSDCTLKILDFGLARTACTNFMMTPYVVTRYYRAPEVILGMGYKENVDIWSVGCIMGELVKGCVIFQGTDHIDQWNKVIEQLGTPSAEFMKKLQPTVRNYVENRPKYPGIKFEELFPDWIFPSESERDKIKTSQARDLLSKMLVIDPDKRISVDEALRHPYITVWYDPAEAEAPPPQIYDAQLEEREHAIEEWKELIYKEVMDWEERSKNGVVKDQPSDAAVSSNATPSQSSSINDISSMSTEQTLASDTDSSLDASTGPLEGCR
SMILES,IC50 (hJNK2; read-out: hJNK2 | IC50),IC50 (hJNK1),IC50 (hJNK3),IC50 (hJNK2)
"CC(C)C[C@H](NC(=O)[C@@H](NC(=O)[C@@H](NC(=O)[C@@H]1CCCN1C(=O)[C@H](CCCNC(=N)N)NC(=O)[C@@H](CCCCN)NC(=O)[C@@H]1CCCN1C(=O)[C@H](CCCNC(=N)N)NC(=O)[C@@H](CCCNC(=N)N)NC(=O)[C@H](CCCNC(=N)N)NC(=O)[C@H](CCCNC(=N)N)NC(=O)[C@H](CCC(N)=O)NC(=O)[C@@H](CCCNC(=N)N)NC(=O)[C@H](CCCNC(=N)N)NC(=O)[C@H](CCCCN)NC(=O)[C@H](CCCCN)NC(=O)[C@H](N)CCCNC(=N)N)[C@@H](C)O)[C@@H](C)O)C(=O)N[C@H](CCCNC(=N)N)C(=O)N[C@@H](CC(C)C)C(=O)N[C@H](Cc1ccccc1)C(N)=O [SEQ ID NO: 173, rKKRrQRRrRPkRPTTLrLf] (H-[dR]KKR[dR]QRR[dR]RP[dK]RPTTL[dR]L[dF]-NH2)",30 nM,88.4 nM,16.8 nM,
"CC(C)C[C@H](NC(=O)[C@H](CC(N)=O)NC(=O)[C@H](CC(C)C)NC(=O)[C@@H](NC(=O)[C@@H](NC(=O)[C@@H]1CCCN1C(=O)[C@H](CCCNC(=N)N)NC(=O)[C@@H](CCCNC(=N)N)NC(=O)[C@H](CCCNC(=N)N)NC(=O)[C@H](CCCNC(=N)N)NC(=O)[C@H](CCC(N)=O)NC(=O)[C@@H](CCCNC(=N)N)NC(=O)[C@H](CCCNC(=N)N)NC(=O)[C@H](CCCCN)NC(=O)[C@H](CCCCN)NC(=O)[C@H](N)CCCNC(=N)N)[C@@H](C)O)[C@@H](C)O)C(=O)N[C@H](Cc1ccccc1)C(N)=O [SEQ ID NO: 174, rKKRrQRRrRPTTLNLf] (H-[dR]KKR[dR]QRR[dR]RPTTLNL[dF]-NH2)",120 nM,334 nM,63.1 nM,
"CC(C)C[C@H](NC(=O)[C@H](CC(N)=O)NC(=O)[C@H](CC(C)C)NC(=O)[C@@H](NC(=O)[C@@H](NC(=O)[C@@H]1CCCN1C(=O)[C@H](CCCNC(=N)N)NC(=O)[C@@H](CCCNC(=N)N)NC(=O)[C@H](CCCNC(=N)N)NC(=O)[C@H](CCC(N)=O)NC(=O)[C@@H](CCCNC(=N)N)NC(=O)[C@H](CCCNC(=N)N)NC(=O)[C@H](CCCCN)NC(=O)[C@H](CCCCN)NC(=O)[C@H](N)CCCNC(=N)N)[C@@H](C)O)[C@@H](C)O)C(=O)N[C@H](Cc1ccccc1)C(N)=O [SEQ ID NO: 175, rKKRrQRrRPTTLNLf] (H-[dR]KKR[dR]QR[dR]RPTTLNL[dF]-NH2)",82.3 nM,185 nM,60.6 nM,
"CC(C)C[C@H](NC(=O)[C@H](CC(N)=O)NC(=O)[C@H](CC(C)C)NC(=O)[C@@H](NC(=O)[C@@H](NC(=O)[C@@H]1CCCN1C(=O)[C@H](CCCNC(=N)N)NC(=O)[C@@H](CCCCN)NC(=O)[C@@H]1CCCN1C(=O)[C@H](CCCNC(=N)N)NC(=O)[C@@H](CCCNC(=N)N)NC(=O)[C@H](CCCNC(=N)N)NC(=O)[C@H](CCCNC(=N)N)NC(=O)[C@H](CCC(N)=O)NC(=O)[C@@H](CCCNC(=N)N)NC(=O)[C@H](CCCNC(=N)N)NC(=O)[C@H](CCCCN)NC(=O)[C@H](CCCCN)NC(=O)[C@H](N)CCCNC(=N)N)[C@@H](C)O)[C@@H](C)O)C(=O)N[C@H](Cc1c[nH]c2ccccc12)C(N)=O [SEQ ID NO: 176, rKKRrQRRrRPkRPTTLNLw] (H-[dR]KKR[dR]QRR[dR]RP[dK]RPTTLNL[dW]-NH2)",40.3 nM,131 nM,22.4 nM,
"CC(C)C[C@H](NC(=O)[C@H](CC(=O)O)NC(=O)[C@@H](NC(=O)[C@@H]1CCCN1C(=O)[C@H](CCCNC(=N)N)NC(=O)[C@@H](CCCCN)NC(=O)[C@@H]1CCCN1C(=O)[C@H](CCCNC(=N)N)NC(=O)[C@@H](CCCNC(=N)N)NC(=O)[C@H](CCCNC(=N)N)NC(=O)[C@H](CCCNC(=N)N)NC(=O)[C@H](CCC(N)=O)NC(=O)[C@@H](CCCNC(=N)N)NC(=O)[C@H](CCCNC(=N)N)NC(=O)[C@H](CCCCN)NC(=O)[C@H](CCCCN)NC(=O)[C@H](N)CCCNC(=N)N)[C@@H](C)O)C(=O)N[C@@H](CC(N)=O)C(=O)N[C@@H](CC(C)C)C(=O)N[C@H](Cc1ccccc1)C(N)=O [SEQ ID NO: 177, rKKRrQRRrRPkRPTDLNLf] (H-[dR]KKR[dR]QRR[dR]RP[dK]RPTDLNL[dF]-NH2)",87.2 nM,355 nM,45.4 nM,
"CC(C)C[C@H](NC(=O)[C@@H](NC(=O)[C@@H](NC(=O)[C@@H]1CCCN1C(=O)[C@H](CCCNC(=N)N)NC(=O)[C@@H](CCCNC(=N)N)NC(=O)[C@H](CCCNC(=N)N)NC(=O)[C@H](CCCNC(=N)N)NC(=O)[C@H](CCC(N)=O)NC(=O)[C@@H](CCCNC(=N)N)NC(=O)[C@H](CCCNC(=N)N)NC(=O)[C@H](CCCCN)NC(=O)[C@H](CCCCN)NC(=O)[C@H](N)CCCNC(=N)N)[C@@H](C)O)[C@@H](C)O)C(=O)N[C@H](CCCNC(=N)N)C(=O)N[C@@H](CC(C)C)C(=O)N[C@H](Cc1c[nH]c2ccccc12)C(N)=O [SEQ ID NO: 178, rKKRrQRRrRPTTLrLw] (H-[dR]KKR[dR]QRR[dR]RPTTL[dR]L[dW]-NH2)",109 nM,329 nM,30.4 nM,
"CC(C)C[C@H](NC(=O)[C@@H](NC(=O)[C@@H](NC(=O)[C@@H]1CCCN1C(=O)[C@H](CCCNC(=N)N)NC(=O)[C@@H](CCCNC(=N)N)NC(=O)[C@H](CCCNC(=N)N)NC(=O)[C@H](CCC(N)=O)NC(=O)[C@@H](CCCNC(=N)N)NC(=O)[C@H](CCCNC(=N)N)NC(=O)[C@H](CCCCN)NC(=O)[C@H](CCCCN)NC(=O)[C@H](N)CCCNC(=N)N)[C@@H](C)O)[C@@H](C)O)C(=O)N[C@H](CCCNC(=N)N)C(=O)N[C@@H](CC(C)C)C(=O)N[C@H](Cc1c[nH]c2ccccc12)C(N)=O [SEQ ID NO: 179, rKKRrQRrRPTTLrLw] (H-[dR]KKR[dR]QR[dR]RPTTL[dR]L[dW]-NH2)",122 nM,249 nM,45.7 nM,
"CC(C)C[C@H](NC(=O)[C@H](CC(=O)O)NC(=O)[C@@H](NC(=O)[C@@H]1CCCN1C(=O)[C@H](CCCNC(=N)N)NC(=O)[C@@H](CCCNC(=N)N)NC(=O)[C@H](CCCNC(=N)N)NC(=O)[C@H](CCCNC(=N)N)NC(=O)[C@H](CCC(N)=O)NC(=O)[C@@H](CCCNC(=N)N)NC(=O)[C@H](CCCNC(=N)N)NC(=O)[C@H](CCCCN)NC(=O)[C@H](CCCCN)NC(=O)[C@H](N)CCCNC(=N)N)[C@@H](C)O)C(=O)N[C@H](CCCNC(=N)N)C(=O)N[C@@H](CC(C)C)C(=O)N[C@H](Cc1c[nH]c2ccccc12)C(N)=O [SEQ ID NO: 180, rKKRrQRRrRPTDLrLw] (H-[dR]KKR[dR]QRR[dR]RPTDL[dR]L[dW]-NH2)",118 nM,265 nM,47 nM,
"CC(C)C[C@H](NC(=O)[C@H](CC(=O)O)NC(=O)[C@@H](NC(=O)[C@@H]1CCCN1C(=O)[C@H](CCCNC(=N)N)NC(=O)[C@@H](CCCNC(=N)N)NC(=O)[C@H](CCCNC(=N)N)NC(=O)[C@H](CCC(N)=O)NC(=O)[C@@H](CCCNC(=N)N)NC(=O)[C@H](CCCNC(=N)N)NC(=O)[C@H](CCCCN)NC(=O)[C@H](CCCCN)NC(=O)[C@H](N)CCCNC(=N)N)[C@@H](C)O)C(=O)N[C@H](CCCNC(=N)N)C(=O)N[C@@H](CC(C)C)C(=O)N[C@H](Cc1c[nH]c2ccccc12)C(N)=O [SEQ ID NO: 181, rKKRrQRrRPTDLrLw] (H-[dR]KKR[dR]QR[dR]RPTDL[dR]L[dW]-NH2)",160 nM,294 nM,47.6 nM,
"CC(C)C[C@H](NC(=O)[C@H](CC(N)=O)NC(=O)[C@H](CC(C)C)NC(=O)[C@@H](NC(=O)[C@@H](C)NC(=O)[C@@H]1CCCN1C(=O)[C@H](CCCNC(=N)N)NC(=O)[C@@H](CCCNC(=N)N)NC(=O)[C@H](CCCNC(=N)N)NC(=O)[C@H](CCCNC(=N)N)NC(=O)[C@H](CCC(N)=O)NC(=O)[C@@H](CCCNC(=N)N)NC(=O)[C@H](CCCNC(=N)N)NC(=O)[C@H](CCCCN)NC(=O)[C@H](CCCCN)NC(=O)[C@H](N)CCCNC(=N)N)[C@@H](C)O)C(=O)N[C@H](Cc1ccccc1)C(N)=O [SEQ ID NO: 182, rKKRrQRRrRPaTLNLf] (H-[dR]KKR[dR]QRR[dR]RP[dA]TLNL[dF]-NH2)",168 nM,1680 nM,59.4 nM,
"CC(C)C[C@H](NC(=O)[C@H](CC(N)=O)NC(=O)[C@H](CC(C)C)NC(=O)[C@@H](NC(=O)[C@@H](C)NC(=O)[C@@H]1CCCN1C(=O)[C@H](CCCNC(=N)N)NC(=O)[C@@H](CCCNC(=N)N)NC(=O)[C@H](CCCNC(=N)N)NC(=O)[C@H](CCC(N)=O)NC(=O)[C@@H](CCCNC(=N)N)NC(=O)[C@H](CCCNC(=N)N)NC(=O)[C@H](CCCCN)NC(=O)[C@H](CCCCN)NC(=O)[C@H](N)CCCNC(=N)N)[C@@H](C)O)C(=O)N[C@H](Cc1ccccc1)C(N)=O [SEQ ID NO: 183, rKKRrQRrRPaTLNLf] (H-[dR]KKR[dR]QR[dR]RP[dA]TLNL[dF]-NH2)",427 nM,2590 nM,199 nM,
"C[C@H](NC(=O)[C@H](C)NC(=O)[C@@H](C)NC(=O)[C@H](C)NC(=O)[C@H](C)NC(=O)[C@@H](CCCCN)NC(=O)[C@@H]1CCCN1C(=O)[C@H](CCCNC(=N)N)NC(=O)[C@@H](CCCNC(=N)N)NC(=O)[C@H](CCCNC(=N)N)NC(=O)[C@H](CCCNC(=N)N)NC(=O)[C@H](CCC(N)=O)NC(=O)[C@@H](CCCNC(=N)N)NC(=O)[C@H](CCCNC(=N)N)NC(=O)[C@H](CCCCN)NC(=O)[C@H](CCCCN)NC(=O)[C@H](N)CCCNC(=N)N)C(=O)N[C@@H](CC(N)=O)C(=O)N[C@@H](C)C(=O)N[C@H](Cc1ccccc1)C(N)=O [compound 200, NH2 r K K R r Q R R r R P k A A a A A N A f CONH2] (H-[dR]KKR[dR]QRR[dR]RP[dK]AA[dA]AANA[dF]-NH2)",,,,3320 nM
